Data reported in PubChem BioAssay AID256 (DTP/NCI, 2004).
Several values for one entry are separate records, joined by “and”; a condition that tells them apart may be missing. Identical values can stand only once. Inconclusive results and toxic doses are left out. How the source made its calls: active means survival T/C of 150% or more; inactive means T/C below 125% in these data.

Tested on: CD2F1 mice, L1210 leukemia ip, survival T/C
Test: NCI In Vivo Anticancer Drug Screen. Data for tumor model L1210 Leukemia (intraperitoneal) in CD2F1 (CDF1) mice
Conditions: endpoint: mean survival time, higher = longer survival
In short: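 Activity against a transplanted murine tumor was judged by comparing the compound group with a vehicle group. The outcome in the treated animals was divided by that in the controls.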

[1] = dose: 25.0 mg/kg/injection, schedule: Q01DX009 (ip), vehicle: saline with Tween-80

Measured: T/C

COC(=O)N1c2ccccc2C=CC1C#N (stereo not given)
inactive: dose: 6.25 mg/kg/injection, schedule: Q01DX009 (ip), vehicle: saline with Tween-80 89 % of control | dose: 12.5 mg/kg/injection, schedule: Q01DX009 (ip), vehicle: saline with Tween-80 103 % of control | dose: 12.5 mg/kg/injection, schedule: Q04DX003 (ip), vehicle: saline with Tween-80 97 % of control | [1] 95 % of control | dose: 25.0 mg/kg/injection, schedule: Q04DX003 (ip), vehicle: saline with Tween-80 97 % of control | dose: 50.0 mg/kg/injection, schedule: Q01DX009 (ip), vehicle: saline with Tween-80 98 % of control | dose: 50.0 mg/kg/injection, schedule: Q04DX003 (ip), vehicle: saline with Tween-80 97 % of control | dose: 100.0 mg/kg/injection, schedule: Q01DX009 (ip), vehicle: saline with Tween-80 101 % of control | dose: 100.0 mg/kg/injection, schedule: Q04DX003 (ip), vehicle: saline with Tween-80 98 % of control | dose: 200.0 mg/kg/injection, schedule: Q04DX003 (ip), vehicle: saline with Tween-80 95 % of control

CC(C)CC(NC(=O)CF)C(=O)O (stereo not given)
inactive: dose: 0.31 mg/kg/injection, schedule: Q01DX009 (ip), vehicle: saline 98 % of control and 108 % of control | dose: 0.62 mg/kg/injection, schedule: Q01DX009 (ip), vehicle: saline 98 % of control | dose: 0.63 mg/kg/injection, schedule: Q01DX009 (ip), vehicle: saline 111 % of control | dose: 1.25 mg/kg/injection, schedule: Q01DX009 (ip), vehicle: saline 98 % of control and 106 % of control | dose: 2.5 mg/kg/injection, schedule: Q01DX009 (ip), vehicle: saline 98 % of control and 100 % of control | dose: 5.0 mg/kg/injection, schedule: Q01DX009 (ip), vehicle: saline 98 % of control and 110 % of control

CC1=C(Br)C(=O)C(Br)=C(Br)C1=O
inactive: [1] 96 % of control

CC(C)(C)/[N+]([O-])=C/Cc1ccccc1
inactive: dose: 25.0 mg/kg/injection, schedule: Q04DX002 (ip), vehicle: saline with Tween-80 97 % of control | dose: 50.0 mg/kg/injection, schedule: Q04DX002 (ip), vehicle: saline with Tween-80 110 % of control | dose: 100.0 mg/kg/injection, schedule: Q04DX002 (ip), vehicle: saline with Tween-80 110 % of control
